The values that follow come from patent publication US12508313B2, “Quinoline derivative-containing pharmaceutical composition” (Eisai R&D Management Co., Ltd., priority 2009, dated 2025).

The nature of the data set: Storage stability of capsules, degradants determined by high-performance liquid chromatography. The class given is physicochemical. The conditions noted are these: Initial (before storage); HPLC. As for the experimental part:
The capsules in Examples 16 to 17 and Comparative Example 6 were stored for 1 week in an open system under an environment at a temperature of 60° C. and a relative humidity of 75%, followed by determining the production of the degradants with high-performance liquid chromatography. In the capsule formulation in Comparative Example 6, in which neither calcium carbonate nor magnesium carbonate was mixed, an amount of the degradants was increased. In contrast, in the capsules in Examples 16 to 17, in which calcium carbonate or magnesium carbonate was mixed, no increase in amount of the degradants was observed (Table 8).

With `COc1cc2nccc(Oc3ccc(NC(=O)NC4CC4)c(Cl)c3)c2cc1C(N)=O.CS(=O)(=O)O` [Compound A, 4-(3-chloro-4-(cyclopropylaminocarbonyl)aminophenoxy)-7-methoxy-6-quinolinecarboxamide methanesulfonate], the “Quantitated compound A (%)” value was determined as 98.38%.
